Experimental data taken from PubChem BioAssay AID1033 (Sanford-Burnham Center for Chemical Genomics, 2008).
Activity calls are given as the source filed them. The rule behind the calls is not given here.

target: Chaperone protein DnaK (Escherichia coli (strain K12)) (UniProt P0A6Y8); test: binders of DnaK substrate-binding domain, biophysical, NMR, chaperone (AID 1033); conditions: Purified DnaK SBD, NMR ligand binding
Sequence (P0A6Y8 whole entry, looked up, the tested form may be a part): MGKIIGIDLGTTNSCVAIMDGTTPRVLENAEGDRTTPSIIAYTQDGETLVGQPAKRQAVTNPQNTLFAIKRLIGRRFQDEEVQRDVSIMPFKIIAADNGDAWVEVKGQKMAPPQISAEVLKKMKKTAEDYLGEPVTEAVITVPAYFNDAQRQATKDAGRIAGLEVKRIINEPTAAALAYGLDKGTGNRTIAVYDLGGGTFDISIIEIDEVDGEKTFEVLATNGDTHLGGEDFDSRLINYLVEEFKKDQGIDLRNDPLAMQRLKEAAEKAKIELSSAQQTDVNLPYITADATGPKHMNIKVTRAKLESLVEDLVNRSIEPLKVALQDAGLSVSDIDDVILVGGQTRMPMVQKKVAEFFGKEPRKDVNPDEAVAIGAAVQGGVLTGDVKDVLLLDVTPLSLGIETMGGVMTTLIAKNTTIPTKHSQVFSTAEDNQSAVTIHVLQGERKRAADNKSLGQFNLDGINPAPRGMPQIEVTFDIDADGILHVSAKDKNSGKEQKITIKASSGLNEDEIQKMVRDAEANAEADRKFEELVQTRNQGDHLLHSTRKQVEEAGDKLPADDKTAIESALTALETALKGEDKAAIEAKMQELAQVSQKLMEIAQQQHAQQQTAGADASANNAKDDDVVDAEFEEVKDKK

Row | Compound | Kd
1 | Cn1c(-c2ccccc2F)n[nH]c1=S | > 4 mM (inactive)
2 | COc1ccc(C(N)=O)cc1N | > 4 mM (inactive)
3 | O=C(O)c1cccc(-n2cccc2)c1 | > 4 mM (inactive)
4 | COc1ccc(S(N)(=O)=O)cc1 | > 4 mM (inactive)
5 | CN1CCC(NC(=O)c2cnccn2)CC1 | > 4 mM (inactive)
6 | COC(=O)CSc1ncnc2c(C)csc12 | > 4 mM (inactive)
7 | NC(=O)C1CCN(C2CC(=O)NC2=O)CC1 (stereo not drawn) | > 4 mM (inactive)
8 | Cn1nc(C(=O)N2CCCC2)c2ccccc2c1=O | > 4 mM (inactive)
9 | O=C(Nc1nccs1)c1cccnc1 | > 4 mM (inactive)
10 | O=c1ccc2cc(O)c(O)cc2o1 | > 4 mM (inactive)
11 | O=S(=O)(Nc1cccc2cn[nH]c12)c1ccc(F)cc1 | > 4 mM (inactive)
12 | O=c1nc(N2CCOCC2)nc2n1CCO2 | > 4 mM (inactive)
13 | CC(=O)Nc1ccc(-c2ccc3nncn3n2)cc1 | > 4 mM (inactive)
